Measurements: ChEMBL document CHEMBL1140817, “Synthesis and anti-HIV activity of 2'-fluorine modified nucleoside phosphonates: analogs of GS-9148” (Bioorg Med Chem Lett, 2008)

Columns and labels:
[1] = Cytotoxicity against human MT2 cells; format: cell-based
[2] = test system: Human immunodeficiency virus 1; experiment: Antiviral activity against HIV1 3B in MT2 cells; format: functional, organism-based; settings: Human immunodeficiency virus 1, 3B

| SMILES | CC50 [1] [µM] | EC50 [2] [µM] |
| --- | --- | --- |
| Nc1ncnc2c1ncn2[C@@H]1O[C@H](OCP(=O)(O)O)C[C@@H]1F | > 1000 | 283 |
| Nc1nc2c(ncn2[C@@H]2O[C@H](OCP(=O)(O)O)C=C2F)c(=O)[nH]1 | 700 | 17.4 |
| Nc1nc(N)c2ncn([C@@H]3O[C@H](OCP(=O)(O)O)C=C3F)c2n1 | – | > 300 |
| O=c1[nH]cnc2c1ncn2[C@@H]1O[C@H](OCP(=O)(O)O)C=C1F | – | > 300 |
| Nc1ncnc2c1ncn2[C@@H]1O[C@H](OCP(=O)(O)O)C=C1F [GS-9148] | > 1000 | 12.3 |
| C[C@H](Cn1cnc2c(N)ncnc21)OCP(=O)(O)O [TENOFOVIR ANHYDROUS] | > 1000 | 3.6 |
